# Columns and labels:
# [1] = biological target: CYP 3A4 (Homo sapiens, UniProt P08684); experiment: CYP inhibition, 3A4; assay type: in vitro ADME; conditions: highest concentration investigated
# [2] = Three-cycle combination toxicity study with gemcitabine and cisplatin, mouse; assay type: in vivo; conditions: mice; SRA737 with IV gemcitabine and cisplatin, intermittent schedule over 18 days
# Text: Clinical combination of SRA737 and gemcitabine in some cases therefore elicited exacerbated hematological and GI toxicities.
# [3] = system: SW620 mouse colon cancer; experiment: In vivo efficacy, SW620 xenograft model; conditions: in combination with standard-dose gemcitabine; data not shown
# Procedure: A program of in vivo efficacy studies was performed to assess the activity of SRA737 in combination with genotoxic chemotherapy and targeted agents, and as monotherapy.
# One of these models also carried a MYCN amplification. A fourth HGSOC PDX model with partial resistance to PARPi was also sensitive to high dose SRA737 monotherapy.
# [4] = biological target: T1, Chk1 (Homo sapiens, UniProt O14757); conditions: limited off-target activity against other kinases; Walton et al.; cited from earlier work
# T1 construct: endogenous in cells
# T1 sequence (O14757 1-476): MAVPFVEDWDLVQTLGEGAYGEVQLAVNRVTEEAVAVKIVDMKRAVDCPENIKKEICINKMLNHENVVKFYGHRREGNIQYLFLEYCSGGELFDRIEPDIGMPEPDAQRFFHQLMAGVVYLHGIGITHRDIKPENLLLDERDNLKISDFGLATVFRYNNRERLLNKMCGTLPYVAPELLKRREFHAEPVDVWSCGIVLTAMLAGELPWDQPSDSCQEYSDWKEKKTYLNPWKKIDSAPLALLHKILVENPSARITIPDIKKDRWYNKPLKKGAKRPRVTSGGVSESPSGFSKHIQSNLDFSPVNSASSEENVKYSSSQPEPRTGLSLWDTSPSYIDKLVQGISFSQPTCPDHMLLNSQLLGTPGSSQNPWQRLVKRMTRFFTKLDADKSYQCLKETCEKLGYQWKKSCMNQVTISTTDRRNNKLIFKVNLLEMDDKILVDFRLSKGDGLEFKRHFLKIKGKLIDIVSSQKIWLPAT
# [5] = Plasma protein binding, ultracentrifugation, human; assay type: in vitro ADME; conditions: for Percentage Bound / Percentage Free: Human plasma
# Procedure: The PK of SRA737 have been determined in the mouse, rat, dog and monkey following oral and IV administration (Table 3). […] An acceptable terminal elimination t1/2 was also observed in each species. […] The plasma protein binding of SRA737 at 1 and 10 μM was examined in mouse, minipig, monkey and human plasma using ultracentrifugation and in dog plasma (10 μM) using rapid equilibrium dialysis.
# [6] = Phase 1 clinical trial, SRA737 in combination with gemcitabine dose escalation; assay type: in vivo; conditions: human, plasma, oral, 20 mg, Day −7, mean, n = 8-10
# [7] = biological target: CYP 2C9 (Homo sapiens, UniProt P11712); experiment: CYP inhibition, 2C9; assay type: in vitro ADME; conditions: highest concentration investigated
# Sequence of CYP 2C9 (P11712 whole entry): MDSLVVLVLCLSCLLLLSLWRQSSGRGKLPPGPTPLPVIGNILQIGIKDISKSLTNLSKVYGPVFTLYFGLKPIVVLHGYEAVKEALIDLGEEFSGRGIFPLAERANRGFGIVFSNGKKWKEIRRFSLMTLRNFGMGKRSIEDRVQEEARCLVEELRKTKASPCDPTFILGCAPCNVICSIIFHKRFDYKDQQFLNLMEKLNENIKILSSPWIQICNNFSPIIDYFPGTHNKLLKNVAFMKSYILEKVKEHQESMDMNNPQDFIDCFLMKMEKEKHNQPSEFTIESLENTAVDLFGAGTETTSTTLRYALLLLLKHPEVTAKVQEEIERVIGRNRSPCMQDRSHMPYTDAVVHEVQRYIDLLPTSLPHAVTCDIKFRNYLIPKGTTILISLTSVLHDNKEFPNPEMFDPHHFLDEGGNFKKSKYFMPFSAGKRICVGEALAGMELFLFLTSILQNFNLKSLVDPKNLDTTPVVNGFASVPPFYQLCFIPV
# [8] = Phase 1 clinical trial, SRA737 monotherapy dose escalation; assay type: in vivo, human; conditions: for AUC(0-t): AUC0-24
# Procedure: A Phase 1 clinical trial was conducted in ‘all comers,’ i.e. no genetic selection was performed, to establish safety, tolerability and pharmacokinetics (“Dose Escalation Phase”). Cohorts consisting initially of a single subject received escalating doses of SRA737, starting in Cohort 1 with 20 mg/day administered orally on a continuous daily dosing schedule in 28 day cycles. the dose was escalated until the maximum tolerated dose (MTD) was identified.
# In the Dose Escalation Phase, 18 subjects received SRA737 in 9 dose level cohorts, from 20 to 1300 mg QD; median treatment duration 62.5 days (range 1 to 226). […] Two of 3 subjects experienced DLTs at the 1300 mg once daily dose, each being an inability to receive 75% of the planned SRA737 dose due to GI intolerability, with the individual GI effects being low grade. […] A cohort receiving 500 mg twice daily was added to determine if a twice daily dosing schedule can improve GI tolerability, given the half-life of SRA737 is approximately 10 hours. One of 6 subjects experienced DLTs in the 500 mg twice daily cohort; this was an inability to receive 75% of the planned SRA737 dose due to grade 4 thrombocytopenia with grade 3 neutropenia and anemia.
# Cmin was calculated at 1000 mg QD (411 ng/mL) and exceeded that determined in preclinical models to be effective. Doses≥300 mg QD also exceeded the preclinical models to be effective.
# Sequence of CYP 3A4 (P08684 whole entry): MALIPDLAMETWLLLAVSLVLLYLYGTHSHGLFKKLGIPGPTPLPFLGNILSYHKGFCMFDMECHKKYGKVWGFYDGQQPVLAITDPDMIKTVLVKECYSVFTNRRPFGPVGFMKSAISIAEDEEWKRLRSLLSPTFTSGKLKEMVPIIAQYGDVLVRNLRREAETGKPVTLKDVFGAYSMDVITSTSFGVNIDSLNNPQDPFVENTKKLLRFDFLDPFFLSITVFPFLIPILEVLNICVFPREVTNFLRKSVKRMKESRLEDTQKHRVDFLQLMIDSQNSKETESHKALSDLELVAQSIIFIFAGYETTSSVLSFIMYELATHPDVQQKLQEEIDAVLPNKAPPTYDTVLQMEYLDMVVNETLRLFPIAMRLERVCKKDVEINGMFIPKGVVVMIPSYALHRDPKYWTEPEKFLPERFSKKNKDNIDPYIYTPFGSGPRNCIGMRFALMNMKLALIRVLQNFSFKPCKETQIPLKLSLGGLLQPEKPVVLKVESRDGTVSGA
compound,measurement,setting,value
"N#Cc1cnc(Nc2cc(NCC3CNCCO3)c(C(F)(F)F)cn2)cn1 (stereo not shown) [SRA737, 5-[[4-[[morpholin-2-yl]methylamino]-5-(trifluoromethyl)-2-pyridyl]amino]pyrazine-2-carbonitrile]",IC50,[1],10 to 50 µM
same,findings exacerbated by SRA737 over the cisplatin/gemcitabine control group,[2],"reversible marrow toxicity, consequent splenomegaly, and the high-dose intestinal observations"
same,antitumor activity,[3],"Significant, dose-dependent antitumor activity"
same,inhibitor of Chk1,[4],potent and selective inhibitor of Chk1
same,Percentage Bound,[5]; 1 μM,87.7%
same,Percentage Free,[5]; 1 μM,12.4%
same,Percentage Bound,[5]; 10 μM,87.2%
same,Percentage Free,[5]; 10 μM,12.8%
same,fraction unbound,"[5]; human, plasma, humans, summary of 1 and 10 μM",~0.13
same,Cmax,[6],31.3 ng/mL
same,Tmax,[6],1.9 h
same,IC50,[7],10 to 50 µM
same,maximum tolerated dose (MTD),[8]; BID,500 mg
same,maximum tolerated dose (MTD),"[8]; QD, continuous daily oral dosing",1000 mg
same,dose-limiting toxicities (DLTs),"[8]; human, in vivo",without any dose-limiting toxicities
same,doses that exceeded the level determined in preclinical models to be effective,"[8]; human, in vivo",≥ 300 mg
same,Cmax,"[8]; human, in vivo, 20 mg",29.0 ng/mL
same,Cmax,"[8]; human, in vivo, 20 mg, Cmax",43 ng/mL
same,half-life,"[8]; human, in vivo, 20 mg, T1/2",17.6 h
same,AUC0-24,"[8]; human, in vivo, 40 mg","1,006 ng · h/mL"
same,Cmax,"[8]; human, in vivo, 40 mg",75.9 ng/mL
same,T1/2,"[8]; human, in vivo, 40 mg",16.8 h
same,Tmax,"[8]; human, in vivo, 40 mg",2.0 h
same,AUC(0-t),"[8]; human, in vivo, 40 mg",809 ng·h/mL
same,Cmax,"[8]; human, in vivo, 40 mg, Cmax",95 ng/mL
same,half-life,"[8]; human, in vivo, 40 mg, T1/2",9.85 h
same,Tmax,"[8]; human, in vivo, 40 mg, Tmax",1 h
same,AUC0-24,"[8]; human, in vivo, 80 mg","1,064 ng · h/mL"
same,Cmax,"[8]; human, in vivo, 80 mg",81.4 ng/mL
same,T1/2,"[8]; human, in vivo, 80 mg",15.6 h
same,Tmax,"[8]; human, in vivo, 80 mg",2.0 h
same,AUC(0-t),"[8]; human, in vivo, 80 mg",691 ng·h/mL
same,Cmax,"[8]; human, in vivo, 80 mg, Cmax",68.9 ng/mL
same,half-life,"[8]; human, in vivo, 80 mg, T1/2",9.27 h
same,Tmax,"[8]; human, in vivo, 80 mg, Tmax",4 h
same,AUC0-24,"[8]; human, in vivo, 160 mg","2,515 ng · h/mL"
same,Cmax,"[8]; human, in vivo, 160 mg",217 ng/mL
same,T1/2,"[8]; human, in vivo, 160 mg",19.8 h
same,Tmax,"[8]; human, in vivo, 160 mg",2.0 h
same,AUC(0-t),"[8]; human, in vivo, 160 mg",1620 ng·h/mL
same,Cmax,"[8]; human, in vivo, 160 mg, Cmax",178 ng/mL
same,half-life,"[8]; human, in vivo, 160 mg, T1/2",13.8 h
same,Tmax,"[8]; human, in vivo, 160 mg, Tmax",4 h
same,AUC0-24,"[8]; human, in vivo, 300 mg","2,362 ng · h/mL"
same,T1/2,"[8]; human, in vivo, 300 mg",15.4 h
same,Tmax,"[8]; human, in vivo, 300 mg",6.0 h
same,AUC(0-t),"[8]; human, in vivo, 300 mg",3150 ng·h/mL
same,half-life,"[8]; human, in vivo, 300 mg, T1/2",8.59 h
same,Tmax,"[8]; human, in vivo, 300 mg, Tmax",4 h
same,AUC0-24,"[8]; human, in vivo, 600 mg","12,850 ng · h/mL"
same,Cmax,"[8]; human, in vivo, 600 mg","1,381 ng/mL"
same,T1/2,"[8]; human, in vivo, 600 mg",10.4 h
same,Tmax,"[8]; human, in vivo, 600 mg",2.9 h
same,AUC(0-t),"[8]; human, in vivo, 600 mg",8870 ng·h/mL
same,Cmax,"[8]; human, in vivo, 600 mg, Cmax",998 ng/mL
same,half-life,"[8]; human, in vivo, 600 mg, T1/2",12.9 h
same,Tmax,"[8]; human, in vivo, 600 mg, Tmax",1.8 h
same,AUC0-24,"[8]; human, in vivo, 800 mg","25,423 ng · h/mL"
same,Cmax,"[8]; human, in vivo, 800 mg","2,573 ng/mL"
same,T1/2,"[8]; human, in vivo, 800 mg",10.0 h
same,Tmax,"[8]; human, in vivo, 800 mg",2.5 h
same,AUC(0-t),"[8]; human, in vivo, 800 mg",18900 ng·h/mL
same,Cmax,"[8]; human, in vivo, 800 mg, Cmax",1980 ng/mL
same,half-life,"[8]; human, in vivo, 800 mg, T1/2",10.3 h
same,Tmax,"[8]; human, in vivo, 800 mg, Tmax",3.3 h
same,T1/2,"[8]; human, in vivo, 1000 mg",9.38 h
same,Tmax,"[8]; human, in vivo, 1000 mg",3.1 h
same,AUC(0-t),"[8]; human, in vivo, 1000 mg",26800 ng·h/mL
same,Cmax,"[8]; human, in vivo, 1000 mg, Cmax",2390 ng/mL
same,half-life,"[8]; human, in vivo, 1000 mg, T1/2",11 h
same,Tmax,"[8]; human, in vivo, 1000 mg, Tmax",3.3 h
same,AUC(0-t),"[8]; human, in vivo, 1300 mg",29800 ng·h/mL
same,Cmax,"[8]; human, in vivo, 1300 mg, Cmax",3230 ng/mL
same,half-life,"[8]; human, in vivo, 1300 mg, T1/2",11.8 h
same,Tmax,"[8]; human, in vivo, 1300 mg, Tmax",2.7 h
same,half-life,"[8]; human, in vivo, half-life",~10 h

# — patent publication US20200397796A1, “METHODS OF TREATMENT OF CANCER COMPRISING CHK1 INHIBITORS” (SIERRA ONCOLOGY, INC., priority 2018, published 2020)
